Paper PMC12873548, “D-amino acid substitution and cyclization enhance the stability and antimicrobial activity of arginine-rich peptides” (Microbiology, 2026)
Converted amounts (≈) assume the structure as drawn. Non-standard residues stand in square brackets, D forms with d. Residues, ends and D or L forms follow the SMILES beside them. *: point of attachment. NHhexadecyl = CCCCCCCCCCCCCCCCN*

Experiments:
[1] = biological target: T1, Sequencing Grade Modified Trypsin (Sus scrofa, UniProt P00761); assay: Stability with trypsin by LC-MS; type: in vitro ADME; settings: 5 µM SGMT trypsin, 50 mM Tris-HCl, 1 mM CaCl2, pH 7.6, 24 h, 37 °C; read-out LC-MS (ESI)
T1 construct: purchased Promega
Experimental: (§1) The antimicrobial activity and structural stability of arginine-rich peptides were evaluated in the presence of human serum (20% and 50 %) and 5 µM Sequencing Grade Modified Trypsin (SGMT, Promega). Briefly, fresh human blood was collected in EDTA tubes and allowed to clot at room temperature for 1 h. Serum was then collected following centrifugation at 2,000 r.p.m. for 10 min at 4 °C. Peptides were incubated with 20%, 50% human serum and 5 µM SGMT in 50 mM Tris-HCl buffer (1 mM CaCl₂, pH 7.6) for 24 h at 37 °C. After the incubation period, the solutions were further incubated with E. coli (ATCC 25922 and O157:H7), P. aeruginosa (PA01, NCTC13437) and S. aureus (ATCC12600), and the MIC was assessed as described in the ‘Antibacterial assessment’ section. Additionally, the samples were analysed using electrospray ionization MS to monitor structural changes based on the molecular weight of the peptides.

[2] = Stability in human serum by LC-MS; type: in vitro ADME; settings: human serum (20% and 50%), 24 h, 37 °C; read-out LC-MS (ESI)
Experimental: as §1

[3] = tested on: S. aureus (ATCC12600); type: cell-based, Staphylococcus aureus
Experimental: The MIC of arginine-based peptides was assessed using the microbroth dilution approach. Our in vitro screening included a panel of Gram-negative bacteria, Escherichia coli (ATCC 25922 and enterohaemorrhagic O157:H7) and Pseudomonas aeruginosa (PA01 and the drug-resistant strain NCTC 13437), and Gram-positive bacteria (Staphylococcus aureus ATCC 12600). Five-millilitre overnight cultures in Lysogeny broth, prepared from single isolated colonies, were diluted to 5×10^6 c.f.u. ml^−1 mid-log phase in Mueller–Hinton (MH) broth. Next, peptide concentrations (0 to 1 mM) were serially diluted twofold in 96-well plates and incubated overnight at 37 °C with the tested bacterial strains. In each case, the MIC was determined as the lowest peptide concentration at which no detectable bacterial growth was observed, employing an absorbance-based assay using a Tecan Spark® multimode plate reader. Subsequently, 10 µl aliquots from each peptide dilution were transferred to MH agar (1.5%) plates to determine the minimum bactericidal concentration (MBC) which was assessed by establishing at which concentration no visible growth of bacteria (assessed via colony formation) on the plate was observed.

[4] = tested on: S. aureus; assay: Intracellular ROS, DCFH-DA; type: cell-based, Staphylococcus aureus; settings: peptides at MIC, 1/2× MIC, 1/4× MIC, 4 h, 37 °C
Experimental: (§2) Total reactive oxygen species (ROS) was measured using an oxidation-sensitive fluorescent dye, 2′,7′-dichlorodihydrofluorescein diacetate (DCFH-DA). For this assay, E. coli and S. aureus cultures were adjusted to an OD600 of 0.3 in MH broth and exposed to peptides at MIC, 1/2× MIC and 1/4× MIC, or to positive control (5 mM H2O2) for 4 h at 37 °C. Cells were centrifuged at 4,000 r.p.m. for 10 min at 4 °C and resuspended in PBS containing 10 µM DCFH-DA. The suspension was incubated under the same conditions for 30 min. Finally, cells were washed twice with PBS, and 150 µl aliquots were transferred to 96-well plates. Oxidized DCF products were detected using a Tecan Spark® microplate reader with excitation at 485 nm and emission at 530 nm. Additionally, 10 µl of E. coli cells incubated with D-R4F4 at MIC, 1/2×MIC and 1/4×MIC was collected for imaging using an All-in-One Fluorescence Microscope (Keyence, Japan).

[5] = tested on: E. coli ATCC 25922; assay: Membrane integrity, PI uptake; type: cell-based, Escherichia coli; settings: E. coli ATCC 25922, 5 µg ml−1 PI, 1 h
Experimental: (§3) Propidium iodide (PI) uptake was used to assess the permeabilization of the bacterial membrane upon incubation with peptides. E. coli and S. aureus cells, adjusted to an OD600 of 0.5, were placed into a 96-well plate containing 5 mM HEPES buffer (pH 7.4, supplemented with 5 mM glucose) and incubated with 5 µg ml^−1 PI for 15 min. Afterwards, different peptide concentrations were added, and PI uptake was rapidly measured every 10 min over a 1 h period using a Tecan Spark® microplate reader (λex=515 nm, λem=620 nm).

[6] = tested on: E. coli ATCC 25922; assay: Cytoplasmic membrane depolarization, DiSC3(5); type: cell-based, Escherichia coli; settings: peptide at 2× MIC or 1,000 µM, positive control Triton X-100
Experimental: The dye 3,3′-dipropylthiadicarbocyanine iodide DiSC3(5) was employed to evaluate perturbation of the bacterial membrane by our designed arginine-rich peptides. For this, a black 96-well microtiter plate containing 150 µl E. coli cells (OD600=0.5) in MH broth per well was incubated with 0.5 µM DiSC3(5) in 5 mM HEPES buffer (pH 7.4, supplemented with 5 mM glucose and 0.1 M KCl) for 15 min to allow for fluorescence quenching. Then, 2× MIC or 1 mM peptide was added, and changes in fluorescence were monitored in real-time (λex=622 nm, λem=670 nm) using a microplate reader.

[7] = tested on: S. aureus ATCC 12600; assay: Membrane integrity, PI uptake; type: cell-based, Staphylococcus aureus; settings: S. aureus ATCC 12600, 5 µg ml−1 PI, 1 h
Experimental: as §3

[8] = tested on: E. coli; assay: Intracellular ROS, DCFH-DA; type: cell-based, Escherichia coli; settings: peptides at MIC, 1/2× MIC, 1/4× MIC, 4 h, 37 °C
Experimental: as §2

T1 sequence (P00761 9-231): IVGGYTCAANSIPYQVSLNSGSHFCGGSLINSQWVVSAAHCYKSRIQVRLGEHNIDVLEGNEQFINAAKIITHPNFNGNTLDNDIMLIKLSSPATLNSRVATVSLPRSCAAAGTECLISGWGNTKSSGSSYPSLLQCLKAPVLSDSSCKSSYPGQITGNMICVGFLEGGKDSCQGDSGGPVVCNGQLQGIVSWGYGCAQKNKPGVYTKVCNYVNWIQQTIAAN

N=C(N)NCCC[C@@H](N)C(=O)N[C@@H](CCCNC(=N)N)C(=O)N[C@H](CCCNC(=N)N)C(=O)N[C@@H](CCCNC(=N)N)C(=O)N[C@H](Cc1ccccc1)C(=O)N[C@@H](Cc1ccccc1)C(=O)N[C@H](Cc1ccccc1)C(=O)N[C@@H](Cc1ccccc1)C(=O)O [D-R4F4] (H-[dR]R[dR]R[dF]F[dF]F-OH)
Stability with trypsin (LC chromatogram and mass spectrum) [1]: appeared at the same retention time in both the absence and presence of proteases
Stability with serum proteases (LC chromatogram and mass spectrum) [2]: appeared at the same retention time in both the absence and presence of proteases
MBC ([3]; ATCC12600): 250 µM (≈ 308 µg/mL)
MIC ([3]; ATCC12600, 24 h): 125 µM (≈ 154 µg/mL)

CCCCCCCCCCCCCCCCNC(=O)[C@H](CCCNC(=N)N)NC(=O)[C@H](CCCNC(=N)N)NC(=O)[C@H](CCCNC(=N)N)NC(=O)[C@@H](N)CCCNC(=N)N [Peptide R4-C16] (H-RRRR-NHhexadecyl; N-terminus and C-terminus assumed)
Intracellular ROS levels [4]: highest modulation of ROS levels
PI uptake, membrane integrity [5]: membrane-disruptive activity
Cytoplasmic membrane depolarization, DiSC3(5) fluorescence [6]: significantly higher fluorescence levels compared to the positive control
PI uptake, membrane integrity [7]: membrane-disruptive activity
Intracellular ROS levels [8]: highest modulation of ROS levels
